Common to all, as to type: in vivo
One assay relates to wheat aphids. In words: slide-dip mortality test on aphids (wheat aphids). Conditions: 24 h, read-out: Corrected mortality (%) Wheat aphid. As for the experimental part: (§1) Inhibitory activities of the steroidal piperidone derivatives listed in Tables 1 and 2 against Myzus persicae, Aphis citricola, Brevicoryne brassicae, and wheat aphids were determined through slide-dip method. Specific process: A specified amount of a compound to be tested was accurately weighed and dissolved with acetone as a solvent, and solutions with concentrations of 50 μg/mL and 75 μg/mL were each prepared with a 0.1% Tween-80 aqueous solution, allowed to stand at room temperature for 0.5 h until the sample was completely dissolved, and stored for later use. Then, adult aphids were fixed with double-sided tape on slides with a small brush. One end of the slide with the aphids was immersed in the test solutions for 5 seconds. The excess liquid was absorbed with absorbent paper, and the mortality rates were calculated 24 h after treatment. Acetamiprid was adopted as a positive control, and a 0.1% Tween-80 aqueous solution was adopted as a negative control. and the results are shown in Table 1.

The subject of another assay is Aphis citricola. Kind of assay: slide-dip mortality and LC50 test on aphids (Aphis citricola). As to conditions: for mortality at 50 µg/mL / mortality at 75 µg/mL: 24 h, read-out: Corrected mortality (%) Aphis citricola; for LC50: read-out: LC50 of inhibitory activity against Aphis citricola. Here is the method: as §1
Another assay deals with Myzus persicae. In words: slide-dip mortality test on aphids (Myzus persicae). Conditions: 24 h, read-out: Corrected mortality (%) Myzus persicae. Here is the method:
as §1

For another assay, the system named is Brevicoryne brassicae. Kind of assay: slide-dip mortality test on aphids (Brevicoryne brassicae). As to conditions: 24 h, read-out: Corrected mortality (%) Brevicoryne brassicae. Here is the method: as §1
The next assay concerns Tetranychus truncatus. Kind of assay: slide dipping mortality test on mites. Conditions: read-out: Corrected mortality (%) Tetranychus truncatus. As for the experimental part:
as §1
The inhibitory activities of the steroidal piperidone derivatives listed in Table 3 on Tetranychus truncatus were tested through slide dipping.

Another assay relates to Bemisia tabaci. In words: foliar spray test on cucumber leaf against B. tabaci. Conditions: 168 h, read-out: Corrected mortality (%) B. tabaci. As for the experimental part: (§2) The toxic activities of the steroidal piperidone derivatives listed in Table 4 against B. tabaci were tested by a foliar spray method. Specific process: A specified amount of a compound to be tested was accurately weighed and dissolved in acetone, and solutions with concentrations of 50 μg/mL and 75 μg/mL were each prepared with a 0.1% of Tween 80 aqueous solution and stored for later use. The pesticide solution was sprayed on the back side of a cucumber leaf, the cucumber leaf was naturally dried, and B. tabaci to be tested were placed on the cucumber leaf. Thiamethoxam was used as a positive control, and acetone was used as a negative control. Several deaths were observed after 7 d of treatment, and the corrected mortality was calculated.

A further assay relates to rice planthoppers. In words: foliar spray test against rice planthoppers. Conditions: 72 h, read-out: Corrected mortality (%) rice planthoppers. Here is the method: as §2
The toxic activities of the steroidal piperidone derivatives listed in Table 5 against rice planthoppers were tested by a foliar spray method. Imidacloprid was used as a positive control, and acetone was used as a negative control. Several deaths were observed after 3 d of treatment, and the corrected mortality was calculated.

Where [1] appears, read: 50 μg/mL, slide dipping, process as for aphids.
Where [2] appears, read: 75 μg/mL, slide dipping, process as for aphids.

Each structure is given as a SMILES string. Values after ≈ are worked out from the molar mass of the structure shown. Like-named read-outs stand apart in the source and are kept apart here.

The values that follow come from patent US11751567B2, “Steroidal piperidone derivative, synthesis method, and use thereof” (NORTHWEST A&F UNIVERSITY, priority 2021, dated 2023).

In general, mortality refers to the percentage killed. The term LC50 denotes the concentration lethal to half of the exposed cells or organisms. With `C/C(=N\C#N)N(C)Cc1ccc(Cl)nc1` [Acetamiprid, reference compound], the mortality at 50 µg/mL worked out at 95.5% in the assay with wheat aphids, 93.3% with Aphis citricola, 94.3% in the assay with Myzus persicae and 94.4% with Brevicoryne brassicae. In addition, the mortality at 75 µg/mL in the assay with wheat aphids, in the assay with Aphis citricola, with Myzus persicae and with Brevicoryne brassicae was 100% throughout. In addition, the LC50 with Aphis citricola came to 9.95 µg/mL (≈ 44.7 µM).

For `C[C@]12CC[C@H](O)CC1CC[C@@H]1[C@@H]2CC[C@@]2(C)[C@H]1CCC(=O)N2C(=O)c1cccc(Br)c1` (some centres unmarked) [Compound (1)-6], the mortality at 50 µg/mL in the assay on wheat aphids was 59.9%; in the assay on Aphis citricola, 44.9%; in the assay with Tetranychus truncatus (setting [1]) it was 24.9%; in the assay on Bemisia tabaci, 56.1%; in the assay with rice planthoppers, 45.2%; in the assay on Myzus persicae, 60.2%. The mortality at 50 µg/mL with Brevicoryne brassicae is 51.7%. Further, the mortality at 75 µg/mL in the assay with wheat aphids was determined as 80%; with Aphis citricola, 78.4%; with Tetranychus truncatus (setting [2]), 55.3%; with Bemisia tabaci it was 67.5%; in the assay on rice planthoppers it was 59.2%; with Myzus persicae it was 77.5%. In addition, the mortality at 75 µg/mL in the assay on Brevicoryne brassicae was determined as 73.6%.

For `CN1COCN(Cc2cnc(Cl)s2)/C1=N\[N+](=O)[O-]` [Thiamethoxam, reference compound], in the assay on Bemisia tabaci, the mortality at 50 µg/mL was determined as 59.5% and the mortality at 75 µg/mL is 76.2%.

As to `C[C@]12CC[C@H](O)CC1CC[C@@H]1[C@@H]2CC[C@@]2(C)[C@H]1CCC(=O)N2C(=O)c1ccccc1F` (some centres unmarked) [Compound (1)-1], the mortality at 50 µg/mL in the assay with wheat aphids is 50%; with Aphis citricola it was 56.2%; in the assay with rice planthoppers it was 42.3%; in the assay on Myzus persicae it was 53.4%; with Brevicoryne brassicae, 42.7%. In addition, the mortality at 75 µg/mL amounted to 70.3% with wheat aphids; 78.4% in the assay with Aphis citricola; 56.9% in the assay with rice planthoppers; 75.3% in the assay with Myzus persicae; 65.5% in the assay on Brevicoryne brassicae.

Regarding `C[C@]12CC[C@H](O)CC1CC[C@@H]1[C@@H]2CC[C@@]2(C)[C@H]1CCC(=O)N2C(=O)c1cccc(F)c1` (some centres unmarked) [Compound (1)-2], the mortality at 50 µg/mL in the assay on wheat aphids amounted to 22.1%; in the assay with Aphis citricola it was 39.3%; in the assay on rice planthoppers, 52.1%; in the assay with Myzus persicae it was 26.1%; in the assay with Brevicoryne brassicae, 30.3%. The mortality at 75 µg/mL is 50.4% in the assay with wheat aphids; 61.4% in the assay with Aphis citricola; 60.3% in the assay on rice planthoppers; 55.1% in the assay on Myzus persicae; 54% in the assay on Brevicoryne brassicae.

`C[C@]12CC[C@H](O)CC1CC[C@@H]1[C@@H]2CC[C@@]2(C)[C@H]1CCC(=O)N2C(=O)c1ccc(Cl)cc1` (some centres unmarked) [Compound (1)-4]: the mortality at 50 µg/mL amounted to 91% with wheat aphids; 89.9% with Aphis citricola; 64.2% in the assay with Tetranychus truncatus (setting [1]); 72.5% with Bemisia tabaci; 72% in the assay on rice planthoppers; 84.1% with Myzus persicae. For the same compound, in the assay on Brevicoryne brassicae, the mortality at 50 µg/mL came to 86.5%. Besides, the mortality at 75 µg/mL came to 100% in the assay on wheat aphids; 100% in the assay with Aphis citricola; 88.6% in the assay with Tetranychus truncatus (setting [2]); 87.4% in the assay with Bemisia tabaci; 80.4% in the assay on rice planthoppers; 100% in the assay on Myzus persicae. Also, in the assay with Brevicoryne brassicae, the mortality at 75 µg/mL stood at 100%. In addition, the LC50 in the assay on Aphis citricola is 11.9 µg/mL (≈ 26.8 µM).

Regarding `C[C@]12CC[C@H](O)CC1CC[C@@H]1[C@@H]2CC[C@@]2(C)[C@H]1CCC(=O)N2C(=O)c1cccc(C(F)(F)F)c1` (some centres unmarked) [Compound (1)-11], the mortality at 50 µg/mL in the assay with wheat aphids came out at 30.4%; in the assay on Aphis citricola it was 25.8%; in the assay on Myzus persicae it was 25%; with Brevicoryne brassicae, 24.7%. Also, the mortality at 75 µg/mL in the assay on wheat aphids was determined as 56.5%; with Aphis citricola, 54.5%; with Myzus persicae, 52.8%; with Brevicoryne brassicae, 50.6%.

`O=[N+]([O-])NC1=NCCN1Cc1ccc(Cl)nc1` [Imidacloprid, reference compound]: in the assay with rice planthoppers, the mortality at 50 µg/mL was determined as 61.2% and the mortality at 75 µg/mL amounted to 82.3%.

As for `C[C@]12CC[C@H](O)CC1CC[C@@H]1[C@@H]2CC[C@@]2(C)[C@H]1CCC(=O)N2C(=O)c1ccc(C(F)(F)F)cc1` (some centres unmarked) [Compound (1)-12], the mortality at 50 µg/mL is 24.8% in the assay on wheat aphids, 32.6% in the assay on Aphis citricola, 30.7% in the assay on Myzus persicae and 29.2% with Brevicoryne brassicae. The mortality at 75 µg/mL is 55.7% in the assay with wheat aphids, 65.9% in the assay with Aphis citricola, 57.3% with Myzus persicae and 57.5% in the assay with Brevicoryne brassicae.

Consider `CC(C)(C)c1ccc(CSc2cnn(C(C)(C)C)c(=O)c2Cl)cc1` [Pyridaben, reference compound], for which, in the assay with Tetranychus truncatus, the mortality at 50 µg/mL was 65.3% and the mortality at 75 µg/mL is 89.3%.

Regarding `C[C@]12CC[C@H](O)CC1=CC[C@@H]1[C@@H]2CC[C@@]2(C)[C@H]1CCC(=O)N2C(=O)c1ccc([N+](=O)[O-])cc1` [Compound (2)-13], in the assay on Tetranychus truncatus (setting [1]), the mortality at 50 µg/mL is 33.2%. For the same compound, the mortality at 75 µg/mL in the assay on Tetranychus truncatus (setting [2]) was 56.8%.

For `Cc1cccc(C(=O)N2C(=O)CC[C@H]3[C@@H]4CCC5C[C@@H](O)CC[C@]5(C)[C@H]4CC[C@@]32C)c1` (some centres unmarked) [Compound (1)-8], in the assay with rice planthoppers, the mortality at 50 µg/mL turned out to be 38.4% and the mortality at 75 µg/mL amounted to 53.6%.

On to `C[C@]12CC[C@H](O)CC1=CC[C@@H]1[C@@H]2CC[C@@]2(C)[C@H]1CCC(=O)N2C(=O)c1ccccc1Br` [Compound (2)-5], for which the mortality at 50 µg/mL with Tetranychus truncatus (setting [1]) worked out at 43.5%. The mortality at 75 µg/mL with Tetranychus truncatus (setting [2]) worked out at 69.6%.

For `COc1ccc(C(=O)N2C(=O)CC[C@H]3[C@@H]4CC=C5C[C@@H](O)CC[C@]5(C)[C@H]4CC[C@@]32C)cc1` [Compound (2)-10], in the assay with Bemisia tabaci, the mortality at 50 µg/mL amounted to 48.5% and the mortality at 75 µg/mL was determined as 69.1%. Further, in the assay with rice planthoppers, the mortality at 50 µg/mL amounted to 33.2% and the mortality at 75 µg/mL is 36%.

In the case of `Cc1ccccc1C(=O)N1C(=O)CC[C@H]2[C@@H]3CCC4C[C@@H](O)CC[C@]4(C)[C@H]3CC[C@@]21C` (some centres unmarked) [Compound (1)-7], in the assay with rice planthoppers, the mortality at 50 µg/mL was determined as 36.2% and the mortality at 75 µg/mL stood at 45.8%.

On to `C[C@]12CC[C@H](O)CC1=CC[C@@H]1[C@@H]2CC[C@@]2(C)[C@H]1CCC(=O)N2C(=O)c1cccc(C(F)(F)F)c1` [Compound (2)-11], for which the mortality at 50 µg/mL is 40% with wheat aphids; 44.9% in the assay on Aphis citricola; 45.4% with Bemisia tabaci; 35.3% with rice planthoppers; 40.9% with Myzus persicae; 42.7% in the assay with Brevicoryne brassicae. In addition, the mortality at 75 µg/mL in the assay on wheat aphids came out at 59.7%; in the assay with Aphis citricola it was 72.7%; in the assay on Bemisia tabaci, 58.3%; with rice planthoppers it was 57.8%; with Myzus persicae it was 66.3%; in the assay with Brevicoryne brassicae, 65.5%.
